Patent US9358276B2, “Methods of diagnosing and treating small intestinal bacterial overgrowth (SIBO) and SIBO-related conditions” (Cedars-Sinai Medical Center, priority 1999, dated 2016)

Key:
[1] = system: isolated segment of guinea pig colon; settings: Wade et al. 1996; slower as dose increased; cited from earlier work
intestinal transit = assay: Intestinal transit in multi-fistulated dogs, cumulative % recovery of 99mTc-DTPA; type: in vivo, dog; settings: n=2
Description: The experiments described below are based on a previously described chronic multi-fistulated dog model, employing surgically fistulated male or female mongrel dogs weighing about 25 kg each. (Lin, H. C. et al., Inhibition of gastric emptying by glucose depends on length of intestine exposed to nutrient, Am. J. Physiol. 256:G404-G411 [1989]). The small intestines of the dogs were each about 300 cm long from the pylorus to the ileal-cecal valve. The duodenal fistula was situated 15 cm from the pylorus; the mid-gut fistula was situated 160 cm from the pylorus. Occluding Foley catheters (balloon catheters that are inflated to produce a water-tight seal with the lumenal surface) were placed into the distal limb of a duodenal fistula and a mid-gut fistula, fat or other test agents were administered lumenally to the thus compartmentalized Aproximal≅ section of the gut, i.e., between the fistulas, or to the compartmentalized Adistal≅ section of the gut, i.e., beyond the mid-gut fistula. Perfusate was pumped into a test section through the catheter at a rate of 2 mL/minute. Test agents were administered along with buffer perfusate, but some test agents were administered intravenously, where specifically noted.
Intestinal transit measurements were made by tracking the movement of a liquid marker across the approximately 150 cm intestinal test segment by delivering about 20 μCi ^99mTc chelated to diethyltriamine pentaacetic acid (DTPA)(Cunningham, K. M. et al., Use of technicium-99m (V)thiocyanate to measure gastric emptying of fat, J. Nucl. Med. 32:878-881 [1991]) as a bolus into the test segment after 60 minutes of a 90-minute perfusion. The output from the mid-gut fistula was collected every 5 min thereafter for 30 minutes, which period is illustrated in FIGS. 9-23. Using a matched dose of ^99mTc to represent the original radioactivity (Johansson, C., Studies of gastrointestinal interactions, Scand. J. Gastroenterol. 9(Suppl 28):1-60 [1974]; Zierler, K., A simplified explanation of the theory of indicator dilution for measurement of fluid flow and volume and other distributive phenomena, Bull. John Hopkins 103:199-217 [1958]), the radioactivity delivered into the animal as well as the radioactivity of the recovered fistula output were all measured using a gamma well counter. After correcting all counts to time zero, intestinal transit was calculated as the cumulative percent recovery of the delivered ^99mTc-DTPA. This method has been well validated over the years and appreciated for its advantage of minimal inadvertent marker loss. […] There was a very high level of marker recovery, with 90% of the marker recovered by 30 minutes and 98% of the marker recovered by 45 minutes.

[2] = system: release of 5-HT from the proximal gut; assay: 5-HT released by the proximal gut (ELISA of mid-gut fistula output); type: in vivo, dog; settings: intravenous PYY (0.8 mg/kg/h); Control 140.1 μg
Procedure: To test the hypothesis that fat in the distal gut causes the release of 5-HT in the proximal gut, the amount of 5-HT collected from the output of the mid-gut fistula (proximal gut 5-HT) over a 90-minute period of buffer perfusion through both the duodenal and mid-gut fistulas (2 mL/min); buffer (control) or oleate (60 mM) was administered to the distal gut (n=1). The amount of 5-HT was determined using an ELISA kit specific for 5-HT (Sigma; Graham-Smith, D. G., The carcinoid syndrome, In: Topics in Gastroenterology, Truclove, S. C. and Lee, E. (eds.), Blackwells, London, p. 275 [1977]; Singh, S. M. et al., Concentrations of serotonin in plasma-a test for appendicitis?, Clin. Chem. 34:2572-2574 [1988]). The amount of 5-HT released by the proximal gut increased in response to fat in the distal gut from 100 μg in the control (buffer minus oleate) to 338 μg (buffer plus oleate to distal gut), showing that 5-HT is released in the proximal gut in response to fat in the distal gut. Thus, the release of 5-HT by the proximal gut can serve as a relayed signal for fat in the distal gut. The relayed release of 5-HT in the proximal gut in response to fat in the distal gut is consistent with Example 14(2), showing that slowing of intestinal transit by fat depends on an efferent 5-HT-mediated pathway to the proximal gut.
To test the hypothesis that 5-HT in the distal gut causes the release of 5-HT in the proximal gut, the amount of 5-HT collected from the output at the mid-gut fistula (Proximal gut 5-HT) over a 90-minute period of buffer perfusion through both the duodenal and mid-gut fistulas (2 mL/min each) was compared in the presence or absence of 5-HT (0.05 mg/kg/h) administered to the distal gut (n=1). 5-HT concentration was determined using an ELISA kit specific for 5-HT (Sigma). The amount of 5-HT released by the proximal gut increased from 156 μg in the control (minus distal 5-HT) to 450 μg (plus 5-HT to distal gut), implying that 5-HT is released by the proximal gut in response to 5-HT in the distal gut. Thus, the release of 5-HT by the proximal gut can serve as a relayed signal for distal gut 5-HT. This relayed release of 5-HT in the proximal gut explains the results of Example 14(6) showing that the slowing of intestinal transit by distal gut 5-HT was abolished by ondansetron in the proximal gut (efferent limb of response) as well as in the distal gut (afferent limb of response).
To test the hypothesis that the proximal gut releases 5-HT in response to lipid in the distal gut, we compared the amount of 5-HT in the output of the midgut fistula (i.e., proximal gut 5-HT) with buffered saline (control) or oleate in the distal gut. The amount of 5-HT collected over 90 min was measured using a 5-HT-specific ELISA test kit, as described herein above. Four dogs were tested.
The amount of 5-HT released from the proximal gut in response to intravenous PYY or buffered saline (Control) during buffer perfusion (2 mL/min over 90 minutes) through both the duodenal and mid-gut fistulas was measured to test the hypothesis that intravenous PYY (0.8 mg/kg/h) causes the release of 5-HT in the proximal gut. 5-HT was measured as in Example 14(9) above. The amount of 5-HT released by the proximal gut increased from 140.1 μg (Control) to 463.1 μg in response to intravenous PYY.

isolated canine ileum = settings: infused into isolated canine ileum; Fox-Threlkeld et al. 1993; cited from earlier work

Row | Compound | passage of a pellet through an isolated segment of guinea pig colon [1] | marker recovery (intestinal transit; 30 μg PYY (0.8 mg/kg/h) intravenously, Buffer Control 78.1±2.2%) | marker recovery (intestinal transit; IV PYY 0.8 μg/kg/h + lumenal normal saline, control 75.1±3.6%) | amount of 5-HT released by the proximal gut [2] | phasic circular muscle activity (isolated canine ileum)
1 | CNCCC(Oc1ccc(C(F)(F)F)cc1)c1ccccc1 (centres unmarked) [fluoxetine] | initially accelerated |  |  |  | 
2 | PYY: Peptide YY, a physiological fat signal molecule that slows transit |  | 11.8±5.4% | 17.1±11.0% | 463.1 µg | dose-dependently increased
